In ChEMBL document CHEMBL4414656, “Alkaloids from the Branches and Leaves of Elaeocarpus angustifolius” (J Nat Prod, 2019):

target: Cholinesterase (Homo sapiens, UniProt P06276); assay: Inhibition of human […] BuChE using S-butyrylthiocholine iodide as substrate preincubated for 20 mins followed by substrate addition and measured every 30 secs for 1 hr by Ellman's method
Sequence (P06276 whole entry): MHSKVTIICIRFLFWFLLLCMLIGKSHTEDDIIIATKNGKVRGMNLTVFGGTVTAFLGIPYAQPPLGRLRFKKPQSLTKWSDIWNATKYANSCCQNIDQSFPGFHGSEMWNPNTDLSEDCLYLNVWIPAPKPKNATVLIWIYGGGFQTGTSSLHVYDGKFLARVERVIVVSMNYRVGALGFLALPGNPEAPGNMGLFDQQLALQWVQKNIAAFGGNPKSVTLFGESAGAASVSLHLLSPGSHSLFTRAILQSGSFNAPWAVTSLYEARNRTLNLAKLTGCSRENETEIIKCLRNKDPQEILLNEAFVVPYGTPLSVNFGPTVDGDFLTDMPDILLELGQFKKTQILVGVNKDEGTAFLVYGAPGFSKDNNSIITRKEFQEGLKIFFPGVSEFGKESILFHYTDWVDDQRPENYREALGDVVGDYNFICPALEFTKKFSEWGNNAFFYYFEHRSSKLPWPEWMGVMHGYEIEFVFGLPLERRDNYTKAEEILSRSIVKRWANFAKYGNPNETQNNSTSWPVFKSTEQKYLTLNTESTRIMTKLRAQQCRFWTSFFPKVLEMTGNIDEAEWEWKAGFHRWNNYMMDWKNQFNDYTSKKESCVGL

Row | SMILES | IC50 [µM]
1 | Cc1cccc2c1C(=O)CC(CCCNCCCO)O2 (racemic) | > 50
2 | Cc1cccc2c1C(=O)C1=C3CCCN3CCC1O2 (racemic) | 39
3 | Cc1cccc(O)c1C(=O)C[C@H]1CC[C@H]2[C@@H]3C(=O)c4c(C)cccc4O[C@@H]3CCN12 | > 50
4 | Cc1cccc2c1C(=O)[C@@H]1[C@H]3CCC(=O)N3CC[C@H]1O2 | > 50
5 | Cc1cccc(O)c1C(=O)CC1CCCN1CCCO (racemic) | > 50
6 | Cc1cccc(O)c1C(=O)C[C@@H]1CC[C@@H]2[C@H]3C(=O)c4c(C)cccc4O[C@@H]3CCN12 (racemic) | > 50
7 | Cc1cccc(O)c1C(=O)C[C@@H]1CC[C@@H]2[C@H]3C(=O)c4c(C)cccc4O[C@H]3CCN12 | > 50
8 | Cc1cccc2c1C(=O)[C@H]1[C@@H](CC[N@@+]3([O-])CCC[C@@H]13)O2 (racemic) | 29
9 | Cc1cccc2c1C(=O)[C@@H]1[C@H]3CCC[N@+]3([O-])CC[C@H]1O2 (racemic) | > 50
10 | Cc1cccc2c1C(=O)[C@H]1[C@H](CCN3C(=O)CC[C@H]13)O2 (racemic) | > 50
11 | Cc1cccc2c1C(=O)[C@@H]1[C@H]3CCCN3CC[C@H]1O2 (racemic) | 35
12 | Cc1cccc2c1C(=O)[C@H]1[C@H](CCN3CCC[C@H]13)O2 (racemic) [ISOELAEOCARPINE] | > 50
13 | Cc1cccc2c1C(=O)[C@@H]1[C@H]3CCC[N@@+]3([O-])CC[C@H]1O2 (racemic) | > 50
14 | Cc1cccc2c1C(=O)[C@@H]1[C@H](CCN3C(=O)CC[C@@H]13)O2 | > 50
